Measured values as given in patent US11026896B2, “Transdermal penetrant formulations containing cannabidiol” (AMPERSAND BIOPHARMACEUTICALS, INC., priority 2019, dated 2021).

Experiment: Plasma pharmacokinetic profile of CBD after a single topical dose to CD-1 mice (In-life Study 1901002-01, LC-MS/MS)
Format: in vivo
Conditions: single topical dose 0.1 mL, mouse plasma
Protocol: The objective of this study was to determine the plasma pharmacokinetic (PK) profile of test article cannabidiol (CBD) following the administration of a single topical dose to CD-1 mice. The work was conducted at Alliance Pharma with a title of In-life Study 1901002-01. Although the in-life study was not intended to be conducted in compliance with Good Laboratory Practice regulations, the study was conducted in accordance with Alliance Pharma's IACUC (Institutional Animal Care and Use Committee) Protocol No. 2016-02_V4 and Alliance Pharma's standard operating procedures (SOPs). In addition, the pharmacokinetic analyses of mouse plasma samples were conducted in accordance with Alliance Pharma SOPs.
A total of 72 mouse (CD-1) plasma samples were transferred from Alliance Pharma's in-life facility located in Malvern, Pa. to the Bioanalytical department for pharmacokinetic analysis. The concentration of CBD in these 72 plasma samples was measured using high-performance liquid chromatography (HPLC) with tandem mass spectrometry (MS/MS) detection.
In-life Study Design: In-life Study 1901002-01 was performed at the in-life testing facility at Alliance Pharma. Four (4) groups of 21 CD-1 mice each (84 total) were administered a single topical dose of CBD. Mice in Group 1 were administered Formulation A at a strength of 2.5% CBD. Mice in Group 2 were administered Formulation B at the same strength of 2.5% CBD. Mice in Group 3 were administered Formulation C at a strength of 5% CBD, and mice in Group 4 were administered Formulation C at a strength of 2.5% CBD. The treatment scheme is summarized below.
Animals in each group received topical administration of either 2.5% o 5% CBD using a 1 ml syringe to draw up exactly 100 μl. Compound was applied in the shaved area only. Each group received a different formulation of the compound.
Sample Collection, Processing, and Shipment: Blood samples were collected at the in-life facility at the following time points: 0.25, 0.5, 1, 2, 4, and 8 hours post-dose from 72 mice in Groups 1 through 4 (18 from each treatment group). Target volume was less than or equal to 0.2 ml. The blood was collected via trunk puncture into tubes using K2 EDTA as an anticoagulant. The collected blood samples were kept on wet ice before being centrifuged. Blood samples were centrifuged as soon as possible after blood collection at approximately 10,000 rpm for about 10 minutes to separate the plasma. Approximately 0.2 mL of each plasma sample was transferred into labeled Eppendorf tubes. Each tube was stored in a freezer set to −20° C. or lower. No blood was collected from 12 (3 from each treatment group) of the 84 mice enrolled in the in-life study; thus, the total number of plasma samples that were transferred to the Alliance Pharma Bioanalytical department for bioanalysis was 72.
Assay Procedures: For analysis of CBD, a 25-μL aliquot of each study sample was mixed with 25 μL of acetonitrile/water (50:50, v/v). Samples were then extracted by protein precipitation using acetonitrile containing the internal standard, tolbutamide (25 ng/mL). A portion of the supernatant was diluted in deionized water and used for the analysis of CBD.
Data Acquisition and Processing: The LC-MS/MS data acquisition was performed on a Shimadzu Nexera X2 LC system coupled with an AB SCIEX Triple Quad 5500 mass spectrometer. Chromatograms were integrated using Analyst 1.6.2 software. A weighted (1/x^2, x=concentration) linear regression was used to generate the calibration curve for CBD. The concentration of CBD was calculated using the peak area ratio of analyte to internal standard based on the standard curve. Mean, standard deviation, precision, accuracy, and assay variability were calculated using Microsoft Excel software.
Pharmacokinetic Analysis: Software—The PK parameters were determined using a non-compartmental analysis tool, namely, Phoenix WnNonlin 6.3 software (Pharsight Corporation, St. Louis, Mo.). […]

[1] = Group 1, AEM.CBD.006 Formulation A 2.5% CBD, mean dose 78.69 mg/kg
[2] = Group 2, AEM.CBD.007 Formulation B 2.5% CBD, mean dose 76.61 mg/kg
[3] = Group 3, KBM.CBD.010 Formulation C 5% CBD, mean dose 155.24 mg/kg
[4] = Group 4, KBM.CBD.011 Formulation C 2.5% CBD, mean dose 75.76 mg/kg

C=C(C)[C@@H]1CCC(C)=C[C@H]1c1c(O)cc(CCCCC)cc1O [Cannabidiol]
AUCinf [1]: 1865 ng·h/mL
AUClast [1]: 1758 ng·h/mL
Cmax [1]: 427.149 ng/mL
t1/2 [1]: 1.78 h
tmax [1]: 2.00 h
AUCinf [2]: 1647 ng·h/mL
AUClast [2]: 1563 ng·h/mL
Cmax [2]: 360.351 ng/mL
t1/2 [2]: 1.70 h
tmax [2]: 2.00 h
AUCinf [3]: 3533 ng·h/mL
AUClast [3]: 3067 ng·h/mL
Cmax [3]: 602.168 ng/mL
tmax [3]: 4.00 h
AUCinf [4]: 1514 ng·h/mL
AUClast [4]: 1410 ng·h/mL
Cmax [4]: 331.560 ng/mL
t1/2 [4]: 1.92 h
tmax [4]: 1.00 h
